From US8481526B2, “Fluoroquinolone carboxylic acid molecular crystals” (Bausch & Lomb Incorporated, priority 2009, dated 2013)
≈ marks a conversion by molar mass, not a printed value. Counter-ions that a name gives are not always drawn. Like-named read-outs stand apart in the source and are kept apart here.

Key:
Type in all cases: physicochemical
[1] = Moisture sorption analysis (VTI moisture sorption balance); conditions: 25° C.; for Hygroscopicity / moisture sorption behaviour: 10% to 90% RH
Protocol: Moisture uptake and loss was monitored as a function of relative humidity using a VTI, moisture sorption balance. A 30-40 mg sample was loaded into a tared glass sample holder. The initial weight of the sample was accurately recorded. The sample was then dried under a steady stream of nitrogen for 2 hours at 40° C. After initial drying, the sample mass was equilibrated with dry nitrogen at 25° C. and the sample was exposed to progressive stepwise increases in humidity under controlled conditions. The sample was equilibrated for two hours at each new relative humidity. The moisture sorption behavior was monitored at 10% to 90% RH in 10% RH intervals and desorption was monitored from 90% to 10% RH. The % moisture gain/loss was recorded vs. the % RH.

[2] = Equilibrium solubility in various solvents (HPLC); conditions: 22° C. ± 2° C.; for solubility: solubility of free base
[3] = pH-dependence of solubility in distilled water (HPLC); conditions: for solubility: distilled water, aqueous buffer, thermodynamic from solid
Protocol: (§1) A reversed phase gradient HPLC method was used for the analysis of besifloxacin solubility samples. The conditions are listed below:
(§2) The solubility of besifloxacin HCl, lot 050956330, was determined in distilled water as a function of pH by adjusting the pH with 1 N NaOH. Suspensions of the drug substance (about 50-150 mg in 10 mL distilled water) were equilibrated for 72-96 hours using a Burrell shaker. Laboratory temperature was 22±2° C. The pH of the suspensions was measured in the presence of excess solid prior to sampling. The samples were centrifuged in an Enprotech ISS-I13 centrifuge at 10,000 RPM for 15 minutes or filtered through 0.45[…] or PVDF filters. When samples were filtered, a volume of filtrate was discarded to allow saturation of filters. The supernatant or the filtrate was diluted as needed using the HPLC diluent prior to analysis. Sample concentration was monitored at varying time intervals to ensure complete equilibration. Also, sample concentration was reported as besifloxacin free base concentration rather than HCl salt.

[4] = Equilibrium solubility in various solvents (HPLC); conditions: Water, 22° C. ± 2° C.; for solubility: saturated solution pH 3.6 (HCl salt), 8.1 (free base), solubility of free base
Protocol: as §1
The solubility of besifloxacin HCl was evaluated in several organic solvents. An excess of drug substance was equilibrated with 10 mL of each solvent for 24-48 hours at room temperature (24±3° C.) using either a small magnetic stirrer or a Burrell Wrist Action shaker. Samples were inspected visually, and if needed, more drug substance was added until excess solid persisted after stirring. The samples were then filtered through 0.45 μm Nylon or PVDF filters or centrifuged at 10,000 RPM for 15 minutes. The filtrate or the supernatant was diluted as needed using the HPLC diluent and analyzed by HPLC. When solubility was greater than 100 mg/mL, no attempt was made to determine the equilibrium solubility and the compound was described as “freely soluble” as per the USP definition.
as §2

[5] = XRPD of excess solids isolated from equilibrated solubility samples (form conversion); conditions: for Form conversion in aqueous media: pH>4
Protocol: Approximately 20-100 mg of powder was loaded onto a low background sample holder. Samples were analyzed on a Rigaku Miniflex (scanning configuration) and scanned from 5-60°, 2-theta at a rate of 1°2θ/minute with a sampling rate of 0.02 seconds. Patterns were analyzed using Jade software version 7.5, provided by Materials Data Inc.
Excess solids were isolated from equilibrated samples and analyzed by XRPD. […] As discussed below (XRPD section), this phase was identified as the crystalline besifloxacin free base.

[6] = pKa and intrinsic solubility from fit of pH-solubility profile to Henderson-Hasselbach equation; conditions: for solubility: aqueous buffer; for pKa: estimated from fit of pH-solubility profile
From the text: To determine pKas that were consistent with observed solubility behavior, the pH dependent solubility was fitted to the following expression: S=So*(10^pKa1-pH+10^pH-pKa2+1) where S=solubility So=intrinsic solubility (total of zwitterionic and neutral species) pKa1=dissociation constant for the carboxylic acid moiety pKa2=dissociation constant for the primary ammonium ion moiety

[7] = Acetonitrile, listed as Free base
[8] = Isopropanol, listed as Free base

## N[C@@H]1CCCCN(c2c(F)cc3c(=O)c(C(=O)O)cn(C4CC4)c3c2Cl)C1 [besifloxacin HCl salt]
[1]; listed as Besifloxacin HCl
  Hygroscopicity / moisture sorption behaviour: not hygroscopic
[2]; Acetonitrile
  USP def: Insoluble
  solubility: 12 µg/mL
[2]; Acetonitrile, listed as Besifloxacin HCL salt
  USP def: insoluble
[2]; Acetonitrile, listed as Besifloxacin HCl salt
  USP def: insoluble
[2]; Ethanol
  USP def: slightly soluble
  solubility: 1122 µg/mL
[2]; Ethanol, listed as Besifloxacin HCL salt
  USP def: slightly soluble
[2]; Ethanol, listed as Besifloxacin HCl salt
  USP def: slightly soluble
[2]; Isopropanol
  USP def: Insoluble
  solubility: 89 µg/mL
[2]; Isopropanol, listed as Besifloxacin HCL salt
  USP def: insoluble
[2]; Isopropanol, listed as Besifloxacin HCl salt
  USP def: insoluble
[2]; Methanol
  USP def: slightly soluble
  solubility: 9898 µg/mL
[2]; Methanol, listed as Besifloxacin HCL salt
  USP def: slightly soluble
[2]; Methanol, listed as Besifloxacin HCl salt
  USP def: slightly soluble
[2]; Water
  USP def: sparingly
[3]; pH 3.54, water, 22° C. ± 2° C., reported as free base concentration, read-out: Solubility
  solubility: 10600 µg/mL
[3]; pH 3.58, water, 22° C. ± 2° C., reported as free base concentration, read-out: Solubility
  solubility: 10200 µg/mL
[3]; pH 3.72, water, 22° C. ± 2° C., reported as free base concentration, read-out: Solubility
  solubility: 10300 µg/mL
[3]; pH 3.95, water, 22° C. ± 2° C., reported as free base concentration, read-out: Solubility
  solubility: 4180 µg/mL
[3]; pH 4.58, water, 22° C. ± 2° C., reported as free base concentration, read-out: Solubility
  solubility: 710 µg/mL
[3]; pH 4.87, water, 22° C. ± 2° C., reported as free base concentration, read-out: Solubility
  solubility: 590 µg/mL
[3]; pH 5.15, water, 22° C. ± 2° C., reported as free base concentration, read-out: Solubility
  solubility: 240 µg/mL
[3]; pH 5.17, water, 22° C. ± 2° C., reported as free base concentration, read-out: Solubility
  solubility: 270 µg/mL
[3]; pH 5.43, water, 22° C. ± 2° C., reported as free base concentration, read-out: Solubility
  solubility: 220 µg/mL
[3]; pH 5.95, water, 22° C. ± 2° C., reported as free base concentration, read-out: Solubility
  solubility: 120 µg/mL
[3]; pH 6.31, water, 22° C. ± 2° C., reported as free base concentration, read-out: Solubility
  solubility: 100 µg/mL
[3]; pH 6.45, water, 22° C. ± 2° C., reported as free base concentration, read-out: Solubility
  solubility: 100 µg/mL
[3]; pH 6.49, water, 22° C. ± 2° C., reported as free base concentration, read-out: Solubility
  solubility: 80 µg/mL
[3]; pH 6.72, water, 22° C. ± 2° C., reported as free base concentration, read-out: Solubility
  solubility: 80 µg/mL
[3]; pH 8.14, water, 22° C. ± 2° C., reported as free base concentration, read-out: Solubility
  solubility: 80 µg/mL
[3]; pH 9.11, water, 22° C. ± 2° C., reported as free base concentration, read-out: Solubility
  solubility: 80 µg/mL
[3]; pH 9.59, water, 22° C. ± 2° C., reported as free base concentration, read-out: Solubility
  solubility: 100 µg/mL
[3]; pH 9.63, water, 22° C. ± 2° C., reported as free base concentration, read-out: Solubility
  solubility: 100 µg/mL
[3]; pH 10.37, water, 22° C. ± 2° C., reported as free base concentration, read-out: Solubility
  solubility: 270 µg/mL
[3]; pH 10.85, water, 22° C. ± 2° C., reported as free base concentration, read-out: Solubility
  solubility: 850 µg/mL
[4]; listed as Besifloxacin HCL salt
  USP def: sparingly soluble
[4]; listed as Besifloxacin HCl salt
  USP def: sparingly soluble
[4]
  solubility: 10635 µg/mL
[5]
  Form conversion in aqueous media: dissolve and precipitate in a different crystalline form
[5]; listed as besifloxacin HCl
  Form conversion in aqueous media: convert in aqueous media (pH>4) to a new crystalline phase
[5]; aqueous pH solubility samples, pHs>3.5-4.0
  Form conversion of excess solid: converted to a different crystalline phase
[5]; equilibrated in organic solvents
  Form conversion of excess solid: no form conversions were observed

## N[C@@H]1CCCCN(c2c(F)cc3c(=O)c(C(=O)O)cn(C4CC4)c3c2Cl)C1 [besifloxacin free base, (R)-(+)-7-(3-amino-2,3,4,5,6,7-hexahydro-1H-azepin-1-yl)-1-cyclopropyl-8-chloro-6-fluoro-1,4-dihydro-4-oxoquinoline-3-carboxylic acid]
[1]; listed as Besifloxacin free base
  Hygroscopicity / moisture sorption behaviour: sorbed moisture at all RH conditions
[1]; 90% RH
  Moisture sorbed: up to 5 % w/w
[2]; [7]
  USP def: Insoluble
  solubility: 5 µg/mL (≈ 12.7 µM)
[2]; Ethanol, listed as Free base
  USP def: Insoluble
  solubility: 33 µg/mL (≈ 83.8 µM)
[2]; [8]
  USP def: Insoluble
  solubility: 4 µg/mL (≈ 10.2 µM)
[2]; Methanol, listed as Free base
  USP def: Very slightly
  solubility: 135 µg/mL (≈ 343 µM)
[3]; 22 °C, pH 6.5 (product pH), read-out: Solubility in aqueous media
  solubility: ~100 µg/mL (≈ 254 µM)
[4]; listed as Free base
  USP def: Insoluble
  solubility: 79 µg/mL

## N[C@@H]1CCCCN(c2c(F)cc3c(=O)c(C(=O)O)cn(C4CC4)c3c2Cl)C1 [besifloxacin, (R)-(+)-7-(3-amino-2,3,4,5,6,7-hexahydro-1H-azepin-1-yl)-1-cyclopropyl-8-chloro-6-fluoro-1,4-dihydro-4-oxoquinoline-3-carboxylic acid]
[3]; aqueous, pH 5.5-9.0
  Solubility description of the zwitterion: very slightly soluble
[3]; aqueous, pH range 5.5-9.0
  Solubility of the zwitterion: ~100 µg/mL
[3]; 22 °C, aqueous, pH 3, read-out: Maximum solubility as a function of pH
  solubility: ~10000 µg/mL (≈ 25400 µM)
[3]; 22 °C, aqueous, pH range 5.5-9.0, read-out: Solubility of the zwitterion
  solubility: ~100 µg/mL (≈ 254 µM)
[6]; distilled water (pH adjusted with 1 N NaOH), assumed in fit of pH-solubility profile, read-out: Intrinsic solubility
  solubility: 74 µg/mL (≈ 188 µM)
[6]; distilled water, pH adjusted with 1 N NaOH, fit of pH-solubility profile, total of zwitterionic and neutral species, read-out: Intrinsic solubility (So)
  solubility: 74 µg/mL (≈ 188 µM)
[6]; read-out: pKa of the carboxylic acid group (pKa1)
  pKa: 5.65
[6]; read-out: pKa of the primary amine (ammonium) group (pKa2)
  pKa: 9.91
